Results taken from PubChem BioAssay (NCI).
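All cell lines were grown in 96-well plates and treated with compound for 48 hours. The concentration for full growth arrest is given as TGI.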

Assays:
Assay in all cases: inhibition of tumour cell growth, NCI panel, 48 h
[1] = tested on: SN12C renal
[2] = tested on: U251 CNS
[3] = tested on: DU-145 prostate
[4] = tested on: T-47D breast
[5] = tested on: LOX IMVI melanoma
[6] = tested on: IGROV1 ovarian
[7] = tested on: MDA-MB-231 breast
[8] = tested on: MOLT-4 leukemia
[9] = tested on: SF-268 CNS
[10] = tested on: SNB-75 CNS

| SMILES | TGI [1] [µM] | TGI [2] [µM] | TGI [3] [µM] | TGI [4] [µM] | TGI [5] [µM] | TGI [6] [µM] | TGI [7] [µM] | TGI [8] [µM] | TGI [9] [µM] | TGI [10] [µM] |
| --- | --- | --- | --- | --- | --- | --- | --- | --- | --- | --- |
| COC(=O)c1nc2n(n1)-c1ccccc1C(=O)N(Cc1ccccc1)C2 | > 100 | > 100 | > 100 | > 100 | > 100 | > 100 | > 100 | > 100 | > 100 | – |
| O=C1OCC2=C1C(c1ccc(Cl)cc1)c1cc3c(cc1O2)OCO3 (centres undefined) | > 100 | – | > 100 | > 100 | > 100 | > 100 | > 100 | 46.3 | > 100 | > 100 |
| CCCCCCCCCCCCOC(=N)N1CCOCC1 | > 52.3 | 21.9 | – | – | 34.4 | 27.7 | – | 6.89 | 30.4 | 29.9 |
| CCOC(=O)n1c(=O)nc2c3c(ncn21)Oc1c(c(-c2ccccc2)nn1-c1ccccc1)C3c1ccc(Cl)cc1 (centres undefined) | 3.21 | 3.06 | 3.09 | 3.15 | 2.78 | – | 2.7 | – | 2.92 | 4.75 |
| COCc1nc(C#N)c(N)o1 | > 10 | – | > 10 | > 10 | > 10 | > 10 | > 10 | > 10 | > 10 | > 10 |
| COC(=O)c1c(O)ccc2c1c1c(n2CCc2ccccc2)C(=O)c2ccccc2C1 | 35.4 | 80.3 | > 100 | – | > 100 | 46 | 57 | > 100 | 41 | 54.1 |
| CC1=C(C(N)=O)C(c2ccncc2)C(C#N)C(=O)N1 (centres undefined) | – | > 100 | > 100 | > 100 | > 100 | > 100 | > 100 | > 100 | > 100 | > 100 |
| CN(C)CCC(C#N)(c1ccccc1)c1ccccc1 | > 100 | > 100 | > 100 | > 100 | – | > 100 | > 100 | – | > 100 | > 100 |
| CCOc1cc(NC(C)=O)ccc1C(=O)NN1C(=O)/C(=C/c2ccc(Cl)cc2)N=C1c1ccccc1 | > 100 | > 100 | > 100 | 77.1 | > 100 | > 100 | > 100 | > 100 | – | > 100 |
| CCOC(=O)c1nc2ccccc2nc1Oc1ccc(F)cc1 | > 100 | > 100 | > 100 | > 100 | > 100 | > 100 | > 100 | – | > 100 | > 100 |
| Cc1c(CNc2ccc(Cl)c(Cl)c2Cl)cnc2nc(N)nc(N)c12 | > 100 | > 46.5 | – | 24.9 | 13.6 | > 49.3 | – | 17.6 | > 45.5 | 24.3 |
| CC(C)c1cc(C(C)C)c(S(=O)(=O)N/N=C2\CC3CCC2(C)C3(C)C)c(C(C)C)c1 (centres undefined) | 38.2 | > 100 | > 100 | 68 | – | > 100 | > 100 | 40 | > 100 | – |
| CSc1cnc2ccccc2c1Sc1cn(C)c2ccccc2c1=O | > 100 | 38.6 | – | – | > 100 | > 100 | – | > 100 | > 100 | 46.8 |
| COc1cccc(O)c1-c1cc(=O)c2c(O)c(OC)c(OC)c(OC)c2o1 | 93.4 | > 100 | 58.9 | – | > 100 | > 100 | > 100 | 97.7 | > 100 | 76.1 |
| O=c1[nH]nc(Nc2ccc(Cl)cc2)c2nnn(-c3ccc([N+](=O)[O-])cc3)c12 | > 100 | 46 | 48.6 | – | 53.1 | > 100 | > 100 | 45.2 | > 100 | > 100 |
| C(#C[C@@]12CCC[C@@H]1NCO2)c1ccc2c(c1)OCO2 | – | > 100 | > 100 | > 100 | > 100 | > 100 | > 100 | 67.7 | > 100 | > 100 |
| Cc1nnc(NS(=O)(=O)c2ccc(N=Nc3c(O)c(C(=O)O)cc4ccccc34)cc2)s1 | > 100 | > 100 | > 100 | > 100 | – | > 100 | > 100 | > 100 | > 100 | > 100 |
| N#CC(NNC(=O)c1ccccc1O)c1ccccc1O (centres undefined) | > 100 | > 100 | – | – | 97.3 | > 100 | – | > 100 | > 100 | > 100 |
| COc1cc(N(CCC#N)CCC#N)ccc1/C(N=Nc1cccc([N+](=O)[O-])c1)=N\NC(=O)c1ccc(C)cc1 | > 100 | > 100 | > 100 | > 100 | > 100 | > 100 | > 100 | > 100 | > 100 | – |
| COc1cc(OC)cc(Oc2nc3ccc(C(F)(F)F)cc3nc2-c2ccccc2)c1 | – | > 100 | > 100 | > 100 | > 100 | > 100 | > 100 | > 100 | > 100 | > 100 |
| O=C1C/C(=C\c2ccccc2)C(=O)c2ccccc2N1 | 34.8 | – | 59.4 | 78.1 | 40.8 | 38 | 49.7 | > 100 | 98.4 | – |
| COC(=O)c1c(C(=O)OC)c2ccccn2c1-c1cc(C)cc2c1C(=O)C=CC2=O | 17.6 | – | 20.1 | 7.83 | – | 17.3 | 15.9 | 3.76 | 20.8 | 23.6 |
| O=C(c1ccccc1)N1N=C(C(F)(F)F)CC1(O)C(F)(F)F (centres undefined) | > 100 | > 100 | > 100 | > 100 | > 100 | – | > 100 | > 100 | > 100 | > 100 |
| COC(=O)[C@]1(CCC(C)=O)C(=O)C=CN([C@H](C)c2ccccc2)[C@@H]1Cc1ccc(OC)c(OCc2ccccc2)c1I | 35 | 33.9 | 37.5 | 49.4 | 31 | 29.1 | 35.7 | > 100 | 38.7 | – |
